The source of these data is patent US6593363B1, “Diterpene derivatives and anti-inflammatory analgesic agents comprising the same” (Sae Han Pharm. Co., Ltd., priority 1998, dated 2003).

In one data set the target is T1, COX-2 (Ovis aries, UniProt P79208).
T1 construct: 3 Unit of COX-2 (Layman chemical) that is separated from sheep placenta and purified; purchased Layman chemical (sic); host or cells: sheep placenta (tissue-derived)
T1 sequence (P79208 17-603): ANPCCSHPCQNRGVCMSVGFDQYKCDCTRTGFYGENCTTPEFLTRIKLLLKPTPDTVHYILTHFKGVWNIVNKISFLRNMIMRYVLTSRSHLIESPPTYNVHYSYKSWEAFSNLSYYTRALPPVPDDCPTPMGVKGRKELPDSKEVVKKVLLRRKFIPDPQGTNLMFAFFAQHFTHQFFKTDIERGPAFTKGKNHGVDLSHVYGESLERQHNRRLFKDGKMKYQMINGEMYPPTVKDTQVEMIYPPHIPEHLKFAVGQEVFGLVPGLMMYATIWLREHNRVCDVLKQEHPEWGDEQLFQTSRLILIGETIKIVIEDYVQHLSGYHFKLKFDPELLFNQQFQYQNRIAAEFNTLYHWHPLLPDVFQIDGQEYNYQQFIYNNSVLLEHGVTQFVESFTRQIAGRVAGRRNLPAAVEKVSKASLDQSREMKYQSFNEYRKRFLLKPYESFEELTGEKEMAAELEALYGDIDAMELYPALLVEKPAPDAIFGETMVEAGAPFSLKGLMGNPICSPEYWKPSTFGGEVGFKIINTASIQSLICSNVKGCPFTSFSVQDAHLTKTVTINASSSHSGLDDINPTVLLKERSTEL
As to the kind of experiment: Inhibition of PGE2 synthesis by inhibiting COX-2 activity (in vitro, TLC/autoradiography). The conditions noted are these: for IC50: 3 Unit COX-2 from sheep placenta, [1-14C] arachidonic acid, 37° C. for 20 min. The class given is biochemical, sheep. Here is the method: The inhibition effect of the novel derivatives against PGE2 synthesis was tested in vitro. […] The novel derivatives were synthesized from (−)-pimara-9(11), 15-diene-4-carboxylic acid, which is a diterpene compound isolated from root-bark of Acanthopanax Koreanum.
The mixture was stranded on ice for 5 min. To the mixture, the sample for assay of COX-2 activity was added, and then incubated on ice for 10 min. After preincubation, 0.02 μCi of [1-^14C] arachidonic acid, as an substrate, was added, and reacted at 37° C. for 20 min. For the termination of the reaction, 10 μl of 2 M HCl was added. Prostaglandin produced was extracted with ethylether twice. Two ethylether layers were integrated, and the solvent was evaporated at a 37° C. water-bath. […] PGE2 part of TLC plate developed was observed using autoradiography (PACKARD). The amount of PGE2 decreased by the sample was compared with reference, and then COX-2 inhibition activity of the sample was determined.

In a further data set the test system is Raw 264.7. As to the kind of experiment: Cytotoxicity, MTT assay. The settings on record: Raw 264.7, MTT assay at 48 hours after sample treatment. The format is cell-based. Here is the method: (§1) To investigate the utility of diterpene derivatives synthesized, cytotoxicities of some derivatives were tested.
(§2) The cytotoxicity was tested using Raw 264.7. The cytotoxicity and non-cytotoxicity were judged by performing MTT assay at 48 hours after sample treatment.

For data set [1], the system named is mono-arthritis model, tibeo-calcanean joint. The data set is described as follows: Anti-inflammatory activity against acute inflammation, adjuvant mono-arthritis model (edema index). The conditions noted are these: rat, 5 mg/kg intraperitoneal; for edema index size: 1 hour after inducing inflammation; for effect on edema index compared with koprofen or indometacin: after 4 hours. The class given is in vivo. The procedure:
For some of the natural single material and synthetic derivatives thereof, of which the inhibition effect against PGE2 synthesis was tested in Experimental example 1, the anti-inflammatory activity against arthritis was tested using a mono-arthritis model as follows:
Derivatives synthesized were dissolved in the mixed solvent of ethanol: Tween 80: saline (1:1:8), and then administered by intrapertioneal injection. Referring to the result of the in vitro test, 5 mg/kg was used as a dose for primary screening test. Adjuvant that was dissolved in mineral oil and then sterilized, was administered into tibeo-calcanean joint of right crus posterius of rat to induce arthritis. The injection volume is controlled to be contained M. butyricum 100 μg/50 μl.
Edema degree was determined primarily, and the degree was used as an index of inflammation. The degree was determined by the estimation method for section area of tibeo-calcanean joint part. Width and length measurements of the joint part were taken according to time schedule upon inducing inflammation, and the width multiplied by the length. The multiplied value was then used as a section area index (SAI). On the basis of the section area index, edema index was calculated as follows: […]
(SAI of inflammatory joint−SAI of normal joint)
Each index was determined at 1, 4 and 24 hours after adjuvant injection. The index value determined at the same part before adjuvant injection was used as one of normal joint.
Unpaired t-test or ANOVA using Fisher PLSD verified the statistical significance.

The nature of another data set: Cytotoxicity, MTT assay. The settings on record: mouse, Raw 264.7 cells; Raw 264.7, MTT assay at 48 hours after sample treatment. The format is cell-based. The procedure: as §1, §2
(Tetrazolium assays rely on reduction of a dye to a coloured formazan, in cell work by metabolically active cells.)

One may read the IC50 as the point on the concentration scale where inhibition reaches its midpoint. The low end stands for greater potency, the high end for weaker potency. In the case of “13-Isoxazolinyl-(−)-pimara-9(11)-en-4-carboxylic acid [Example 21]”, the IC50 against COX-2 was above 2000 µM; in the data set on Raw 264.7, 250 µM.

Take “16-Hydroxy-(−)-pimara-4-carboxylic acid [Example 16]”: the “inhibition effect against PGE2 synthesis (in words)” value (“inhibition effect” for short) at COX-2 is given as “excellent inhibition effect”. The compound further yielded a half-maximal inhibitory concentration (IC50) in the data set with Raw 264.7 of 137 µM.

In turn, “16-Methoxyethoxymethoxy-(−)-Pimara-9(11)-En-4-Carboxylic Acid [Example 52]” had an IC50 on COX-2 above 2000 µM.

In the case of `C=C[C@@]1(C)CC=C2C(CCC3[C@](C)(C(=O)O)CCC[C@@]23C)C1` (single isomer, unassigned; (-)) [Natural Component, (−)-pimara-9(11),15-diene-4-carboxylic acid, reference compound], on COX-2, inhibition was half-maximal at 790 µM (IC50).

Compound `C=CC1(C)CC=C2C(CCC3C(C)(CO)CCCC23C)C1` (stereo not drawn) [Example 1, 4-Hydroxymethyl-(−)-pimara-9(11),15-diene] had an IC50 against COX-2 above 2000 µM.

On to `C=CC1(C)CC=C2C(CCC3C(C)(CC(=O)O)CCCC23C)C1` (stereo not drawn) [Example 5, 4-Carboxymethyl-(−)-pimara-9(11),15-diene], for which, at COX-2, the “inhibition effect” value is recorded as “excellent inhibition effect” and inhibition was half-maximal at 82.3 µM (IC50). For the same compound, in data set [1], the edema index size entry is “not more then half” and the “effect on edema index compared with koprofen or indometacin” value was “even superior effect”. Moreover, half-maximal inhibition with Raw 264.7 (IC50) was put at 140 µM.

For the compound `C=CC1(C)CC=C2C(CCC3C(C)(C=CC(=O)O)CCCC23C)C1` (stereo not drawn) [Example 7, 4-Carboxyvinyl-(−)-pimara-9(11),15-diene], the “inhibition effect” value on COX-2 was “excellent inhibition effect”.

At COX-2, `C=C[C@@]1(C)CC=C2C(CCC3[C@@]2(C)CCC[C@@]3(C)/C=C/C(=O)O)C1` (stereo partly drawn) [Example 7, 4-Carboxyvinyl-(−)-pimara-9(11),15-diene] showed an IC50 of 69.7 µM. Besides, 139 µM corresponded to half-maximal inhibition in the data set “Cytotoxicity, MTT assay” (IC50 at 48 h).

Turning to `C=C[C@@]1(C)CC=C2[C@@H](CC[C@@H]3[C@](C)(CCC(=O)O)CCC[C@@]23C)C1` [Example 9, 4-Carboxyethyl-(−)-pimara-9(11),15-diene], on COX-2, the “inhibition effect” value is “excellent inhibition effect” and the IC50 came out at 105 µM. For the same compound, in data set [1], the edema index size entry is on record as “not more then half” and the “effect on edema index compared with koprofen or indometacin” value was “even superior effect”. Further, half-maximal inhibition in the data set “Cytotoxicity, MTT assay” (IC50 at 48 h) was put at 114 µM.

For `C=C[C@@]1(C)CC=C2C(CCC3[C@](C)(C(N)=O)CCC[C@@]23C)C1` (stereo partly drawn) [Example 11, 4-Carbamoyl-(−)-pimara-9(11), 15-diene], at COX-2, the IC50 is above 2000 µM.

With `C=CC1(C)CC=C2C(CCC3C(C)(C(=O)NC)CCCC23C)C1` (stereo not drawn) [Example 12, 4-(N-methyl)carbamoyl-(−)-pimara-9(11), 15-diene], on COX-2, the half-inhibitory concentration (IC50) is above 2000 µM.

`C=C[C@@]1(C)CC=C2C(CCC3[C@](C)(C(=O)NN)CCC[C@@]23C)C1` (stereo partly drawn) [Example 13, 4-Carbazoyl-(−)-pimara-9(11), 15-diene]: on COX-2, the 50% inhibitory concentration (IC50) was 41.9 µM.

With `C=CC1(C)CC=C2C(CCC3C(C)(C(=O)NO)CCCC23C)C1` (stereo not drawn) [Example 14, 4-(N-hydroxy)carbaomyl-(−)-pimara-9(11), 15-diene], on COX-2, the 50% inhibitory concentration (IC50) came to 819 µM.

Compound `C[C@]1(CCO)CC=C2C(CCC3[C@](C)(C(=O)O)CCC[C@@]23C)C1` (stereo partly drawn) [Example 15, 16-Hydroxy-(−)-pimara-9(11)-en-4-carboxylic acid] had an IC50 at COX-2 above 2000 µM. Moreover, the 50% inhibitory concentration (IC50) at 48 h in “Cytotoxicity, MTT assay” amounted to 139 µM.

`CC1(CCO)CC(O)C2C(CCC3C(C)(C(=O)O)CCCC23C)C1` (stereo not drawn) [Example 19, 11,16-Dihydroxy-(−)-pimara-4-carboxylic acid]: the 50% inhibitory concentration (IC50) on COX-2 is above 2000 µM; in the data set on Raw 264.7, 152 µM.

On to `C=C[C@@]1(C)CC=C2C(CCC3[C@@]2(C)CCC[C@@]3(C)/C=C/C=C/C(=O)O)C1` (stereo partly drawn) [Example 29, 4-Carboxybutadienyl-(−)-pimara-9(11),15-diene], for which the concentration for half-maximal inhibition (IC50) against COX-2 came out at 26.8 µM.

`C=CC1(C)CC=C2C(CCC3C(C)(CCC=CC(=O)O)CCCC23C)C1` (stereo not drawn) [Example 33, 4-Carboxyhomoallyl-(−)-pimara-9(11),15-diene] displayed an IC50 on COX-2 of 63.8 µM.

The compound `C=CC1(C)CC=C2C(CCC3C(C)(CC(=O)NS(=O)(=O)c4ccc(I)cc4)CCCC23C)C1` (stereo not drawn) [Example 38, 4-(N-pipsyl)carbamoylmethyl-(−)-pimara-9(11),15-diene] returned an IC50 against COX-2 of 72.2 µM.

In turn, `C=CC1(C)CC=C2C(CCC3C(C)(CCC(=O)NS(=O)(=O)c4ccc(I)cc4)CCCC23C)C1` (stereo not drawn) [Example 40, 4-(N-pipsyl)carbamoylethyl-(−)-pimara-9(11),15-diene] displayed a concentration for half-maximal inhibition (IC50) against COX-2 of 60.7 µM.

With `C=CC1(C)CC=C2C(CCC3C(C)(CCC(=O)NS(C)(=O)=O)CCCC23C)C1` (stereo not drawn) [Example 41, 4-(N-methanesulfonyl)carbamoylethyl-(−)-pimara-9(11),15-diene], the IC50 at COX-2 is 180 µM.

As for `C=CC1(C)CC=C2C(CCC3C(C)(C=CC=CC(=O)NS(=O)(=O)c4ccc(I)cc4)CCCC23C)C1` (stereo not drawn) [Example 43, 4-(N-Pipsyl)Carbamoylbutadienyl-(−)-Pimara-9(11),15-Diene], the concentration for half-maximal inhibition (IC50) against COX-2 was 25.6 µM.

Turning to `COCC[C@@]1(C)CC=C2[C@@H](CC[C@@H]3[C@](C)(C(=O)O)CCC[C@@]23C)C1` [Example 46, 16-Methoxy-(−)-Pimara-9(11)-En-4-Carboxylic Acid], on COX-2, the half-maximal inhibitory concentration (IC50) is above 2000 µM.

`CC(=O)OCCC1(C)CC=C2C(CCC3C(C)(C(=O)O)CCCC23C)C1` (stereo not drawn) [Example 48, 16-Acetyloxy-(−)-Pimara-9(11)-En-4-Carboxylic Acid] gave an IC50 at COX-2 of 1420 µM.

Regarding `COCOCC[C@@]1(C)CC=C2[C@@H](CC[C@@H]3[C@](C)(C(=O)O)CCC[C@@]23C)C1` [Example 50, 16-Methoxymethoxy-(−)-Pimara-9(11)-En-4-Carboxylic Acid], the IC50 at COX-2 is above 2000 µM.

`CON=CCC1(C)CC=C2C(CCC3C(C)(C(=O)O)CCCC23C)C1` (stereo not drawn) [Example 55, 16-Methoxyimino-(−)-Pimara-9(11)-En-4-Carboxylic Acid] registered an IC50 at COX-2 above 2000 µM.
